From patent publication US20240398885A1, “FULL LIGHT REPAIR” (Coty Inc., priority 2021, published 2024)

Experiments:
[1] = test system: normal human keratinocytes; experiment: Comet assay with formamidopyrimidine DNA glycosylase (FPG) to detect oxidized DNA-bases after light exposure; format: cell-based; conditions: UVA, IR and visible light; creatine included in the compositions
Experimental: (§1) Experiments were carried out using the protocol discussed in Chamayou-Robert et al. Photodermatol Photoimmunol Photomed. 2021; 00:1-7. Briefly, experiments were performed on normal human keratinocytes. Cells were exposed to either UVB (280-315 nm), UVA (315-400 nm), visible light, blue light (400-500 nm), or infra-red (760 nm-1 mm) for a time to induce DNA damage. Cells were then treated with the compositions indicated in FIGS. 3(a), 3(b) and 4(a), 4(b) and 4(c), respectively and DNA damage was analyzed by using the comet assay (Wischermann et al. Mutat Res. 2007; 630:122-128; Jean et al. Photochem Photobiol. 2007; 74 (3): 417-423; Azqueta et al. Mutagenesis. 2013; 28:271-277; Chamayou-Robert et al. Photoderm Photoimmun. 2021; 00:1-7) with the use of specific enzymes, formamidopyrimidine DNA glycosylase (FPG) or T4 endonuclease V in order to detect oxidized DNA-bases and cyclobutane pyrimidine dimers (CPD) respectively.
(§2) Compositions comprising creatine in an amount of 0.5% w/w, Micrococcus Lysate in an amount of 0.0005% w/w and Arabidopsis Thaliana extract in an amount of 0.0005% w/w were tested in this example.

[2] = test system: normal human keratinocytes; experiment: Comet assay with T4 endonuclease V to detect cyclobutane pyrimidine dimers (CPD) after light exposure; format: cell-based; conditions: UVB and visible light; creatine included in the compositions
Experimental: as §1, §2

Compound: CN(CC(=O)O)C(=N)N [creatine, Creatine]
- effect on the DNA repair of oxidative DNA damage induced by light [1]: boosting effect
- effect on the DNA repair of CPD damage induced by light [2]: boosting effect
